In the assay the test system is K422 lymphoma cells. Put plainly: Saturation binding assay (Scatchard analysis) on K422 lymphoma cells. To be noted: Scatchard analysis (FIG. 3), read-out: binding affinity. From the text: Vos: “In vitro and in vivo evaluation of direct rhenium-188-labeled anti-CD52 monoclonal antibody alemtuzumab for radioimmunotherapy of B-cell chronic lymphocytic leukemia.” (Nuclear Medicine and Biology 35 (2008) 599-604)].

Ac-225-DOTA-rituximab: the Kd came out at 30 nM.

The values above are taken from US20150157742A1, “[…] OF BIOLOGICAL COMPOUNDS LABELED WITH THE ALPHA EMITTER Ac-225” (priority 2013, published 2015).
